Source: the CheMixHub ionic liquid set

Experiment: xn = mol fraction of the nth substance listed

CCCCCCCCCCCCCCCC[N+](C)(C)C.[Br-] + NCC(=O)NCC(=O)O + O
100 kPa
Details	electrical conductivity [S/m]
293.15 K, x1 = 3.61e-06, x2 = 0.0001802	0.0032
293.15 K, x1 = 5.41e-06, x2 = 0.0001802	0.0042
293.15 K, x1 = 7.22e-06, x2 = 0.0001802	0.0053
293.15 K, x1 = 9.02e-06, x2 = 0.0001802	0.006
293.15 K, x1 = 3.428e-05, x2 = 0.0001802	0.0097
293.15 K, x1 = 3.608e-05, x2 = 0.0001802	0.0099
298.15 K, x1 = 1.8e-06, x2 = 9.009e-05	0.0016
298.15 K, x1 = 3.61e-06, x2 = 9.009e-05	0.0027
298.15 K, x1 = 5.41e-06, x2 = 9.009e-05	0.0037
298.15 K, x1 = 5.41e-06, x2 = 0.0001802	0.0044
298.15 K, x1 = 7.21e-06, x2 = 9.009e-05	0.0048
298.15 K, x1 = 7.22e-06, x2 = 0.0001802	0.0054
298.15 K, x1 = 9.02e-06, x2 = 0.0001802	0.0062
298.15 K, x1 = 1.082e-05, x2 = 9.009e-05	0.0065
298.15 K, x1 = 1.082e-05, x2 = 0.0001802	0.0072
298.15 K, x1 = 1.262e-05, x2 = 1.802e-05	0.0046
298.15 K, x1 = 2.885e-05, x2 = 9.009e-05	0.0094
298.15 K, x1 = 3.067e-05, x2 = 0.0001802	0.0098
298.15 K, x1 = 3.245e-05, x2 = 9.009e-05	0.0099
303.15 K, x1 = 1.8e-06, x2 = 9.009e-05	0.0018
303.15 K, x1 = 3.61e-06, x2 = 9.009e-05	0.0029
303.15 K, x1 = 3.61e-06, x2 = 0.0001802	0.0036
303.15 K, x1 = 5.41e-06, x2 = 0.0001802	0.0046
303.15 K, x1 = 7.21e-06, x2 = 9.009e-05	0.005
303.15 K, x1 = 7.22e-06, x2 = 0.0001802	0.0055
303.15 K, x1 = 9.02e-06, x2 = 9.009e-05	0.006
303.15 K, x1 = 9.02e-06, x2 = 0.0001802	0.0064
303.15 K, x1 = 1.081e-05, x2 = 1.802e-05	0.0044
303.15 K, x1 = 1.082e-05, x2 = 9.009e-05	0.007
303.15 K, x1 = 1.082e-05, x2 = 0.0001802	0.0073
303.15 K, x1 = 1.262e-05, x2 = 1.802e-05	0.0051
303.15 K, x1 = 1.262e-05, x2 = 9.009e-05	0.0078
303.15 K, x1 = 1.263e-05, x2 = 0.0001802	0.0081
303.15 K, x1 = 1.622e-05, x2 = 1.802e-05	0.0061
303.15 K, x1 = 1.623e-05, x2 = 9.009e-05	0.0089
303.15 K, x1 = 1.624e-05, x2 = 0.0001802	0.009
303.15 K, x1 = 1.802e-05, x2 = 1.802e-05	0.0065
303.15 K, x1 = 1.803e-05, x2 = 9.009e-05	0.0092
303.15 K, x1 = 1.804e-05, x2 = 0.0001802	0.0098
303.15 K, x1 = 1.982e-05, x2 = 1.802e-05	0.007
303.15 K, x1 = 1.983e-05, x2 = 9.009e-05	0.0094
303.15 K, x1 = 1.984e-05, x2 = 0.0001802	0.0099
303.15 K, x1 = 2.164e-05, x2 = 9.009e-05	0.0095
303.15 K, x1 = 2.344e-05, x2 = 9.009e-05	0.0097
303.15 K, x1 = 2.524e-05, x2 = 9.009e-05	0.0099
303.15 K, x1 = 2.703e-05, x2 = 1.802e-05	0.0079
303.15 K, x1 = 2.883e-05, x2 = 1.802e-05	0.0081
303.15 K, x1 = 3.064e-05, x2 = 1.802e-05	0.0082
303.15 K, x1 = 3.244e-05, x2 = 1.802e-05	0.0084
303.15 K, x1 = 3.424e-05, x2 = 1.802e-05	0.0084
303.15 K, x1 = 3.604e-05, x2 = 1.802e-05	0.0086
308.15 K, x1 = 1.8e-06, x2 = 9.009e-05	0.0018
308.15 K, x1 = 1.8e-06, x2 = 0.0001802	0.003
308.15 K, x1 = 3.61e-06, x2 = 9.009e-05	0.003
308.15 K, x1 = 3.61e-06, x2 = 0.0001802	0.0039
308.15 K, x1 = 5.41e-06, x2 = 9.009e-05	0.0042
308.15 K, x1 = 5.41e-06, x2 = 0.0001802	0.0049
308.15 K, x1 = 7.21e-06, x2 = 9.009e-05	0.0052
308.15 K, x1 = 7.22e-06, x2 = 0.0001802	0.0057
308.15 K, x1 = 9.02e-06, x2 = 0.0001802	0.0066
308.15 K, x1 = 1.081e-05, x2 = 1.802e-05	0.0047
308.15 K, x1 = 1.262e-05, x2 = 1.802e-05	0.0055
308.15 K, x1 = 1.262e-05, x2 = 9.009e-05	0.0081
308.15 K, x1 = 1.442e-05, x2 = 1.802e-05	0.006
308.15 K, x1 = 1.622e-05, x2 = 1.802e-05	0.0063
308.15 K, x1 = 1.624e-05, x2 = 0.0001802	0.0099
308.15 K, x1 = 1.802e-05, x2 = 1.802e-05	0.0068
308.15 K, x1 = 1.803e-05, x2 = 9.009e-05	0.01
308.15 K, x1 = 2.163e-05, x2 = 1.802e-05	0.0076
308.15 K, x1 = 2.343e-05, x2 = 1.802e-05	0.0077
308.15 K, x1 = 2.523e-05, x2 = 1.802e-05	0.008
308.15 K, x1 = 2.703e-05, x2 = 1.802e-05	0.0082
308.15 K, x1 = 2.883e-05, x2 = 1.802e-05	0.0084
308.15 K, x1 = 3.064e-05, x2 = 1.802e-05	0.0084
308.15 K, x1 = 3.244e-05, x2 = 1.802e-05	0.0086
308.15 K, x1 = 3.424e-05, x2 = 1.802e-05	0.0087
308.15 K, x1 = 3.604e-05, x2 = 1.802e-05	0.009
313.15 K, x1 = 1.8e-06, x2 = 9.009e-05	0.0019
313.15 K, x1 = 1.8e-06, x2 = 0.0001802	0.0031
313.15 K, x1 = 3.61e-06, x2 = 9.009e-05	0.0033
313.15 K, x1 = 3.61e-06, x2 = 0.0001802	0.004
313.15 K, x1 = 5.41e-06, x2 = 9.009e-05	0.0045
313.15 K, x1 = 5.41e-06, x2 = 0.0001802	0.005
313.15 K, x1 = 7.21e-06, x2 = 1.802e-05	0.0039
313.15 K, x1 = 7.21e-06, x2 = 9.009e-05	0.0055
313.15 K, x1 = 7.22e-06, x2 = 0.0001802	0.0059
313.15 K, x1 = 9.02e-06, x2 = 9.009e-05	0.0064
313.15 K, x1 = 9.02e-06, x2 = 0.0001802	0.0067
313.15 K, x1 = 1.082e-05, x2 = 9.009e-05	0.0075
313.15 K, x1 = 1.082e-05, x2 = 0.0001802	0.0078
313.15 K, x1 = 1.262e-05, x2 = 1.802e-05	0.006
313.15 K, x1 = 1.262e-05, x2 = 9.009e-05	0.0084
313.15 K, x1 = 1.263e-05, x2 = 0.0001802	0.0085
313.15 K, x1 = 1.442e-05, x2 = 1.802e-05	0.0065
313.15 K, x1 = 1.442e-05, x2 = 9.009e-05	0.0091
313.15 K, x1 = 1.443e-05, x2 = 0.0001802	0.0094
313.15 K, x1 = 1.622e-05, x2 = 1.802e-05	0.0069
313.15 K, x1 = 1.802e-05, x2 = 1.802e-05	0.0075
313.15 K, x1 = 1.982e-05, x2 = 1.802e-05	0.0078
313.15 K, x1 = 2.163e-05, x2 = 1.802e-05	0.0081
313.15 K, x1 = 2.343e-05, x2 = 1.802e-05	0.0082
313.15 K, x1 = 2.523e-05, x2 = 1.802e-05	0.0084
313.15 K, x1 = 2.703e-05, x2 = 1.802e-05	0.0086
313.15 K, x1 = 2.883e-05, x2 = 1.802e-05	0.0089
313.15 K, x1 = 3.064e-05, x2 = 1.802e-05	0.009
313.15 K, x1 = 3.244e-05, x2 = 1.802e-05	0.0093
313.15 K, x1 = 3.424e-05, x2 = 1.802e-05	0.0095
313.15 K, x1 = 3.604e-05, x2 = 1.802e-05	0.0097

C[P+](c1ccccc1)(c1ccccc1)c1ccccc1.[Br-] + OCCO
Details	viscosity [mPa·s]
298.15 K, 100 kPa, x1 = 0.1	35
298.2 K, 101 kPa, x1 = 0.2	121
303.15 K, 100 kPa, x1 = 0.33	116.5
303.15 K, 100 kPa, x2 = 0.8333	56.5
303.15 K, 100 kPa, x2 = 0.9091	30.5
303.15 K, 100 kPa, x2 = 0.9756	17.6
313.15 K, 100 kPa, x1 = 0.1	18.24
313.15 K, 100 kPa, x1 = 0.33	65.5
313.15 K, 100 kPa, x2 = 0.9756	13
323.15 K, 100 kPa, x2 = 0.9756	9.5
323.15 K, 101 kPa, x1 = 0.25	31.72
333.15 K, 100 kPa, x2 = 0.9756	7.5
343.15 K, 100 kPa, x2 = 0.9756	6
353.15 K, 100 kPa, x2 = 0.9756	5.1
